{"source": "patent US8173788B2", "about": "“Peptide having ability to activate cancer-related gene” (priority 2005, dated 2012)", "system": "cancer-related gene", "assay": "DNA chip analysis of cancer-related gene expression after treatment with the HPLC-purified peptide (Table 1)", "type": "cell-based, human", "experimental": "In this diagnosis method, cells or tissues of interest are treated with the peptide of the present invention as in the above-mentioned diagnosis method 1; thus the same specimen as in the diagnosis method 1 can be used. However, in this diagnosis method, the reverse transcription is conducted to generate a cDNA (first-strand cDNA) pool, which is complementary to the mRNA, by using total mRNA extracted from the cells or tissues treated with the peptide as a template and using oligo-dT primer having T7 RNA polymerase promoter region as a reverse primer. Then, after the second-strand cDNA synthesis, in vitro transcription (IVT) was conducted using T7 RNA polymerase and biotinylated rNTPs at 37° C. for 14 hr to yield biotin-labeled cRNA. The amount of the cRNA is measured with a spectrophotometer to confirm that at least […] of cRNA can be yielded.\nThe diagnosis method further includes processes for bringing this cRNA labeled with fluorescence dye or the like into contact with cDNA of a cancer-related gene which is immobilized on a plate for hybridization and for measuring the fluorescence intensity.\nThus, on the basis of the expression condition of a cancer-related gene, a tendency of canceration or malignancy of cancer can be determined.\nAn increase or decrease in the expression amount of a cancer-related gene is determined by comparing the expression level in a control. The cells and tissues used as the control are the same as those used in the diagnosis method 1.\nTables 1 and 2 show examples of cancer-related genes of which expression is increased and immune system genes of which expression is increased or decreased by the treatment with the peptide (HPLC-purified peptide) derived from cell membrane surfaces of human squamous-cell carcinoma cells UTC-8 (Deposition No.: FERM BP-08611, which is deposited with International Patent Organism Depositary, National Institute of Advanced Industrial Science and Technology).\nThe present inventor has verified the validity of this diagnosis method using 55000 cancer-related genes. When such a great number of cancer-related genes are used, DNA chip technology is preferably used. In the DNA chip technology, each DNA of the cancer-related genes is immobilized so as to be arrayed on a slide; the above-mentioned labeled cRNA solution is dropped into the slide; the cRNA which is not hybridized is removed by washing; and fluorescence intensity of each gene position is detected by a scanner. The results are compared with the result which is obtained by conducting the same process using the above-mentioned control solution. Thus, cancer-related genes of which expression is increased or decreased when cells or tissues are treated with the peptide of the present invention can be exhaustively analyzed.", "note": "Where no end group is shown, it is not given here.", "data": [{"sequence": "QPQFGRRMESK [HPLC-purified peptide, peptide (HPLC-purified peptide) derived from cell membrane surfaces of human squamous-cell carcinoma cells UTC-8]", "values": [{"measurement": "Fold Change", "setting": "gene AF040963 MXD4", "result": 2.357}, {"measurement": "Fold Change", "setting": "gene D16431 HDGF", "result": 3.596}, {"measurement": "Fold Change", "setting": "gene D26120 splicing factor 1", "result": 2.833}, {"measurement": "Fold Change", "setting": "gene K03218 SRC, v-src sarcoma viral oncogene homolog", "result": 3.912}, {"measurement": "Fold Change", "setting": "gene M13150 MAS1", "result": 2.07}, {"measurement": "Fold Change", "setting": "gene M32977 VEGF", "result": 2.457}, {"measurement": "Fold Change", "setting": "gene M60119 HIVEP2", "result": 2.205}, {"measurement": "Fold Change", "setting": "gene M62829 EGR1", "result": 2.105}, {"measurement": "Fold Change", "setting": "gene M83221 RELB", "result": 2.351}, {"measurement": "Fold Change", "setting": "gene M95712 BRAF", "result": 3.034}, {"measurement": "Fold Change", "setting": "gene NM_000753 PDE3B", "result": 2.741}, {"measurement": "Fold Change", "setting": "gene NM_001201 BMP3", "result": 3.736}, {"measurement": "Fold Change", "setting": "gene NM_001402 EEF1A1", "result": 2.405}, {"measurement": "Fold Change", "setting": "gene NM_001419 ELAVL1", "result": 2.95}, {"measurement": "Fold Change", "setting": "gene NM_001511 CXCL1", "result": 2.477}, {"measurement": "Fold Change", "setting": "gene NM_001570 IRAK2", "result": 2.24}, {"measurement": "Fold Change", "setting": "gene NM_001665 ARHG", "result": 2.111}, {"measurement": "Fold Change", "setting": "gene NM_002357 MAD", "result": 2.397}, {"measurement": "Fold Change", "setting": "gene NM_002613 PDPK1", "result": 2.866}, {"measurement": "Fold Change", "setting": "gene NM_002712 PPP1R7", "result": 2.697}, {"measurement": "Fold Change", "setting": "gene NM_003017 SFRS3", "result": 2.742}, {"measurement": "Fold Change", "setting": "gene NM_003685 KHSRP", "result": 2.04}, {"measurement": "Fold Change", "setting": "gene NM_004204 PIGQ", "result": 2.756}, {"measurement": "Fold Change", "setting": "gene NM_004218 RAB11B, member RAS oncogene family", "result": 2.102}, {"measurement": "Fold Change", "setting": "gene NM_004723 ARHGEF2", "result": 2.209}, {"measurement": "Fold Change", "setting": "gene NM_004906 WTAP", "result": 2.544}, {"measurement": "Fold Change", "setting": "gene NM_005207 CRKL", "result": 2.497}, {"measurement": "Fold Change", "setting": "gene NM_005524 HES1", "result": 2.395}, {"measurement": "Fold Change", "setting": "gene NM_005730 CTDSP2, conserved gene amplified in osteosarcoma", "result": 2.387}, {"measurement": "Fold Change", "setting": "gene NM_005850 SF3B4", "result": 3.023}, {"measurement": "Fold Change", "setting": "gene NM_005937 MLLT6", "result": 2.996}, {"measurement": "Fold Change", "setting": "gene NM_006191 PA2G4", "result": 2.002}, {"measurement": "Fold Change", "setting": "gene NM_006318 putative glialblastoma cell differentiation-related", "result": 2.098}, {"measurement": "Fold Change", "setting": "gene NM_006694 JTB", "result": 2.019}, {"measurement": "Fold Change", "setting": "gene NM_006716 ASK, activator of S phase kinase", "result": 2.23}, {"measurement": "Fold Change", "setting": "gene NM_006842 splicing factor 3b, subunit 2, 145 kDa", "result": 2.245}, {"measurement": "Fold Change", "setting": "gene NM_007040 E1B-AP5", "result": 2.433}, {"measurement": "Fold Change", "setting": "gene NM_007279 U2AF2", "result": 2.494}, {"measurement": "Fold Change", "setting": "gene NM_012103 AUP1", "result": 2.46}, {"measurement": "Fold Change", "setting": "gene NM_014308 P101-PI3K", "result": 2.849}, {"measurement": "Fold Change", "setting": "gene NM_015714 G0S2", "result": 2.481}, {"measurement": "Fold Change", "setting": "gene NM_016263 FZR1", "result": 2.466}, {"measurement": "Fold Change", "setting": "gene U33819 MAZ", "result": 2.093}, {"measurement": "Fold Change", "setting": "gene X03663 CSF1R", "result": 2.781}, {"measurement": "Fold Change", "setting": "gene X54936 PGF", "result": 3.576}, {"measurement": "Fold Change", "setting": "gene X61498 NFKB2", "result": 2.833}, {"measurement": "Fold Change", "setting": "gene X78710 MTF1", "result": 2.001}]}]}
